The source of these data is publication PMC9592870 (Molecular Diversity, 2022).

In brackets after ≈: the same amount, converted by molar mass.

The experiment concerns DR-Mtb strains. As to the kind of experiment: microbe, parasite or virus in culture. It counts as cell-based. The settings on record: Mycobacterium tuberculosis, read-out: MIC against all DR-Mtb strains.
In the case of `COC(=O)c1cc(-c2cccc(NC(=O)Nc3ccc(Cl)c(Cl)c3)c2)on1` [4t, Methyl 5-(3-(3-(3,4-dichlorophenyl)ureido)phenyl)isoxazole-3-carboxylate], the MIC lay in the range of 0.5 to 4 µg/mL (≈ 1.23 to 9.85 µM).
Consider `COC(=O)c1cc(-c2ccc(NC(=O)Nc3ccc(Cl)c(Cl)c3)cc2)on1` [4tb, Methyl 5-(4-(3-(3,4-dichlorophenyl)ureido)phenyl)isoxazole-3-carboxylate], for which the MIC lay in the range of 1 to 4 µg/mL (≈ 2.46 to 9.85 µM).
To `COC(=O)c1cc(-c2cccc(NC(=S)Nc3ccc(Cl)cc3)c2)on1` [5f, Methyl 5-(3-(3-(4-chlorophenyl)thioureido)phenyl)isoxazole-3-carboxylate] belongs 0.5 to 4 µg/mL (≈ 1.29 to 10.3 µM).
